Assay results published in patent US5106407A, “Iodones and methods for antimicrobial use” (priority 1989, dated 1992).
Converted amounts (≈) assume the structure as drawn.

Legend:
Bacillus subtilis = assay: minimum inhibitory concentration (MIC), agar dilution; format: cell-based; conditions: Bacillus subtilis, ATCC8473; ATCC 8473; nutrient agar pH 6.8; read-out: MIC
Description: (§1) The minimum inhibitory concentration (MIC) for the compound of Example 19, i.e., (2-nitrophenyl)-iodonium 2,2-dimethyl-4,6-dioxo-1,3-dioxan-5-ylide was determined for 9 bacteria (using nutrient agar) and 5 yeast and fungi (using malt yeast agar). A one percent solution of this test compound (i.e., the compound of Example 19) was prepared in a mixture of acetone-water. Nutrient agar was prepared at pH 6.8 using deionized water according to standard Difco procedures. Malt yeast agar was prepared by adding 3 g Bacto yeast extract and 42 g Bacto Malt agar per liter of deionized water. The agar (nutrient agar when testing with bacteria and malt yeast agar when testing with yeast and fungi) was dispensed in 30 mL aliquots into 25×200 millimeter (mm) test tubes, capped and autoclaved for 15 min at 115° C. The test tubes containing the agar were cooled in a water bath until the temperature of the agar was 48° C. and then an appropriate amount of the one percent solution of the test compound was added (except in the controls where no test compound was added with the acetone-water) to the respective test tubes so that final concentrations of 500, 250, 100, 50, 25, 10, 5, 2.5, 1.0 and 0 parts per million (ppm) of the test compound in the agar were obtained. The agar solutions were each mixed and poured into individual petri plates so that each petri plate contained agar having a known concentration of test compound dispersed therein. After drying for 24 hr, the petri plates were inoculated with bacteria when the petri plates contained nutrient broth agar or with fungi and yeast when the petri plates contained malt yeast agar.
(§2) The inoculation with bacteria was accomplished using the following procedure. Twenty-four hr cultures of each of the bacteria were prepared by incubating the respective bacteria in tubes containing nutrient broth for 24 hr at 30° C. in a shaker. Dilutions of each of the 24 hr cultures were made so that 9 separate suspensions (one for each of the 9 test bacteria) were made, each containing about 10^8 colony forming units (CFU) per mL of suspension of a particular bacteria. Aliquots of 0.3 mL of each of the above suspensions were used to fill individual wells of a Steer's Replicator. For each microbial suspension, 0.3 mL was used to fill 3 wells (i.e., 3 wells of 0.3 mL each) so that for the 9 different bacteria 27 wells were filled. The Steer's Replicator was then used to inoculate the petri plates.
(§3) The petri plates were incubated at 30° C. for 48 hr and then read to determine if the test compound (i.e., the compound of Example 19) which was incorporated into the agar prevented growth of the respective bacteria. The minimum inhibitory concentration (MIC) for each bacteria was defined as the lowest concentration of the test compound which prevented growth of that bacteria.
(§4) In a similar procedure, the MIC (in ppm) of the compound of Example 11 (i.e., (2-nitrophenyl)-iodonium 2,6-dioxocyclohexylide) for various organisms was determined at an acid pH (about 6.8) and at an alkaline pH (about 8.2).
(§5) Using similar procedures, the MIC's (in ppm) of various compounds of Formula I and/or Formula II were determined for the organisms Enterobacter aerogenes and Bacillus subtilis in a neutral solution (pH about 6.8) and in an alkaline medium (pH about 8.2).

Enterobacter aerogenes = assay: as above; format: cell-based; conditions: Klebsiella aerogenes, ATCC13048; ATCC 13048; nutrient agar pH 6.8; read-out: MIC
Description: as §1, §2, §3, §4, §5

[1] = tested on: mixture of bacterial organisms listed in Table 1; assay: cutting oil preservation test;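 note: colony count scale from 1 for no colonies up to 10 for a solid mass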
Description: Fifty gram aliquots of the latex were placed in sterile bottles and one hundred gram aliquots of the diluted cutting oil were placed in 250-mL Erlenmeyer flasks. An appropriate amount of a fresh 1 percent stock solution of (2-nitrophenyl)-iodonium 2,2-dimethyl-4,6-dioxo-1,3-dioxan-5-ylide in acetone-water was added to achieve the desired final concentrations (see Tables 5 and 6). A small portion of the respective latex or cutting oil preparation was then streaked onto Tryptic Soy Agar (TSA) petri plates using sterile cotton swabs to determine whether the preparations were sterile. If the particular preparation was sterile, it was then inoculated with an appropriate volume (0.1 mL for the latex and 0.2 mL for the cutting oil) of a mixture of equal aliquots of 24 hr cultures of each of the bacterial organisms listed in Table 1 (not the fungi and yeast). The latex samples were incubated at 30° C. and the cutting oils were agitated on a rotary shaker at room temperature. After 24 hr, all samples were again streaked on TSA. All plates were then incubated at 30° C. for 48 hr and then rated 1 to 10 according to the growth rating system described in Table 4.
The results from this first set of streaks after inoculation are listed in the columns labeled streak number 1 in Tables 5 and 6. Samples with a rating of 3 or less from streak number 1 were reinoculated as described for the first inoculation above. Samples with a rating of 4 or greater were not reinoculated. After another 24 hr all samples were again restreaked on TSA agar. The results from these second streaks were labeled streak number 2 in Tables 5 and 6. Samples were reinoculated and restreaked in this fashion for a maximum of 10 streaks. Any samples with two streaks in a row with a ten rating were not restreaked again.

`CC1(C)OC(=O)[C-]([I+]c2ccccc2[N+](=O)[O-])C(=O)O1` [Example 19, (2-Nitrophenyl)-iodonium 2,2-dimethyl-4,6-dioxo-1,3-dioxan-5-ylide] was tested, and the MIC (Bacillus subtilis) was no more than 1 µg/mL, the MIC (Enterobacter aerogenes) was 1 µg/mL (≈ 2.56 µM) and the growth rating ([1]; 25 ppm, streak 1) was 1 (0). The growth rating ([1]; 25 ppm, streak 2) was 9, the growth rating ([1]; 25 ppm, streak 3) was 10 and the growth rating ([1]; 25 ppm, streak 4, restreaking not continued) was 10. The growth rating ([1]; 50 ppm, streak 1) was 1 (0), the growth rating ([1]; 50 ppm, streak 2) was 2 (1-4) and the growth rating ([1]; 50 ppm, streak 3) was 10. The growth rating ([1]; 50 ppm, streak 4, restreaking not continued) was 10, the growth rating ([1]; 100 ppm, streak 1) was 1 (0) and the growth rating ([1]; 100 ppm, streak 2) was 2 (1-4). The growth rating ([1]; 100 ppm, streak 3) was 2 (1-4), the growth rating ([1]; 100 ppm, streak 4) was 1 (0) and the growth rating ([1]; 100 ppm, streak 5) was 10. For the same compound, the growth rating ([1]; 100 ppm, streak 6, restreaking not continued) was 10, the growth rating ([1]; 250 ppm, streak 1) was 1 (0) and the growth rating ([1]; 250 ppm, streak 2) was 1 (0). For the same compound, the growth rating ([1]; 250 ppm, streak 3) was 1 (0), the growth rating ([1]; 250 ppm, streak 4) was 1 (0) and the growth rating ([1]; 250 ppm, streak 5) was 1 (0). The growth rating ([1]; 250 ppm, streak 6) was 1 (0), the growth rating ([1]; 250 ppm, streak 7) was 1 (0) and the growth rating ([1]; 250 ppm, streak 8) was 1 (0). For the same compound, the growth rating ([1]; 250 ppm, streak 9) was 6 (51-100), the growth rating ([1]; 250 ppm, streak 10) was 10 and the growth rating ([1]; 500 ppm, streak 1) was 1 (0). For the same compound, the growth rating ([1]; 500 ppm, streak 2) was 1 (0), the growth rating ([1]; 500 ppm, streak 3) was 1 (0) and the growth rating ([1]; 500 ppm, streak 4) was 1 (0). For the same compound, the growth rating ([1]; 500 ppm, streak 5) was 1 (0), the growth rating ([1]; 500 ppm, streak 6) was 1 (0) and the growth rating ([1]; 500 ppm, streak 7) was 1 (0). For the same compound, the growth rating ([1]; 500 ppm, streak 8) was 1 (0), the growth rating ([1]; 500 ppm, streak 9) was 1 (0) and the growth rating ([1]; 500 ppm, streak 10) was 1 (0). For the same compound, the growth rating ([1]; 1000 ppm, streak 1) was 1 (0), the growth rating ([1]; 1000 ppm, streak 2) was 1 (0) and the growth rating ([1]; 1000 ppm, streak 3) was 1 (0). For the same compound, the growth rating ([1]; 1000 ppm, streak 4) was 1 (0), the growth rating ([1]; 1000 ppm, streak 5) was 1 (0) and the growth rating ([1]; 1000 ppm, streak 6) was 1 (0). The growth rating ([1]; 1000 ppm, streak 7) was 1 (0), the growth rating ([1]; 1000 ppm, streak 8) was 1 (0) and the growth rating ([1]; 1000 ppm, streak 9) was 1 (0). The growth rating ([1]; 1000 ppm, streak 10) was 1 (0).
